Measured values: PubChem BioAssay AID1963861 (Molecular Pharmacology Branch, DTP, NCI, 2024)
pIC50: −log10 of the molar value.

Tested on: 885724-159-R-J1-PDC KRAS PDC multicell spheroid viability
Assay: Anticancer human tumor 885724-159-R-J1-PDC patient-derived pancreatic adenocarcinoma cell line growth inhibition [KRAS2]
Conditions: for pIC50: curve of first compound; for viability, T/C: stronger effect = lower value
How it was run: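 KRAS-mutant tumor cells were grown as spheroids with HUVEC endothelial cells and human MSCs as stroma. Targeted agents were tested alone and with KRAS pathway inhibitors. Doses started at or near clinical Cmax, or 10 microM, descending half-log.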

[1] = second compound 0.1 µM, first compound 0.0316 µM
[2] = second compound 0.1 µM, first compound 0.1 µM
[3] = second compound 0.1 µM, first compound 0.316 µM
[4] = second compound 0.1 µM, first compound 1 µM
[5] = second compound 0.1 µM, first compound 3.16 µM
[6] = second compound 0.1 µM, first compound 10 µM
[7] = second compound 0.316 µM, first compound 0.0316 µM
[8] = second compound 0.316 µM, first compound 0.1 µM
[9] = second compound 0.316 µM, first compound 0.316 µM
[10] = second compound 0.316 µM, first compound 1 µM
[11] = second compound 0.316 µM, first compound 3.16 µM
[12] = second compound 0.316 µM, first compound 10 µM
[13] = second compound 1 µM, first compound 0.0316 µM
[14] = second compound 1 µM, first compound 0.1 µM
[15] = second compound 1 µM, first compound 0.316 µM
[16] = second compound 1 µM, first compound 1 µM
[17] = second compound 1 µM, first compound 3.16 µM
[18] = second compound 1 µM, first compound 10 µM
[19] = second compound 3.16 µM, first compound 0.0316 µM
[20] = second compound 3.16 µM, first compound 0.1 µM
[21] = second compound 3.16 µM, first compound 0.316 µM
[22] = second compound 3.16 µM, first compound 1 µM
[23] = second compound 3.16 µM, first compound 3.16 µM
[24] = second compound 3.16 µM, first compound 10 µM
[25] = second compound 10 µM, first compound 0.0316 µM
[26] = second compound 10 µM, first compound 0.1 µM
[27] = second compound 10 µM, first compound 0.316 µM
[28] = second compound 10 µM, first compound 1 µM
[29] = second compound 10 µM, first compound 3.16 µM
[30] = second compound 10 µM, first compound 10 µM
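Also: spheroids exposed to agents for 7 days before readout.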

SMILES: COc1cc(Nc2ncc3c(n2)-c2ccc(Cl)cc2C(c2c(F)cccc2OC)=NC3)ccc1C(=O)O + COc1cc2nc(C)nc(NC(C)c3cc(N)cc(C(F)(F)F)c3)c2cc1OC1CCOC1
- pIC50 (second compound 0.1 µM): < 5.00
- pIC50 (second compound 0.316 µM): < 5.00
- pIC50 (second compound 1 µM): < 5.00
- pIC50 (second compound 3.16 µM): < 5.00
- pIC50 (second compound 10 µM): 7.05
- viability, T/C [1]: 110%
- viability, T/C [2]: 99.3%
- viability, T/C [3]: 90.9%
- viability, T/C [4]: 105%
- viability, T/C [5]: 106%
- viability, T/C [6]: 108%
- viability, T/C [7]: 114%
- viability, T/C [8]: 96.4%
- viability, T/C [9]: 90.7%
- viability, T/C [10]: 96.1%
- viability, T/C [11]: 102%
- viability, T/C [12]: 105%
- viability, T/C [13]: 108%
- viability, T/C [14]: 102%
- viability, T/C [15]: 101%
- viability, T/C [16]: 93.7%
- viability, T/C [17]: 108%
- viability, T/C [18]: 107%
- viability, T/C [19]: 98.8%
- viability, T/C [20]: 96.8%
- viability, T/C [21]: 92.3%
- viability, T/C [22]: 92.5%
- viability, T/C [23]: 97.5%
- viability, T/C [24]: 114%
- viability, T/C [25]: 83.4%
- viability, T/C [26]: 45.5%
- viability, T/C [27]: 44%
- viability, T/C [28]: 45.6%
- viability, T/C [29]: 62.9%
- viability, T/C [30]: 30.3%

SMILES: CC(=O)Nc1cccc(-n2c(=O)n(C3CC3)c(=O)c3c(Nc4ccc(I)cc4F)n(C)c(=O)c(C)c32)c1 + C=CC(=O)N1CCN(c2nc(OCC3CCCN3C)nc3c2CCN(c2cccc4cccc(C)c24)C3)CC1CC#N
- pIC50 (second compound 0.0316 µM): 8.88
- pIC50 (second compound 0.1 µM): 8.83
- pIC50 (second compound 0.316 µM): 9.03
- pIC50 (second compound 1 µM): 9.20
- pIC50 (second compound 3.16 µM): > 10.00
- viability, T/C (second compound 0.0316 µM, first compound 0.0001 µM): 107%
- viability, T/C (second compound 0.0316 µM, first compound 0.000316 µM): 78.7%
- viability, T/C (second compound 0.0316 µM, first compound 0.001 µM): 51.3%
- viability, T/C (second compound 0.0316 µM, first compound 0.00316 µM): 38.5%
- viability, T/C (second compound 0.0316 µM, first compound 0.01 µM): 31%
- viability, T/C (second compound 0.0316 µM, first compound 0.0316 µM): 20.8%
- viability, T/C (second compound 0.1 µM, first compound 0.0001 µM): 92.3%
- viability, T/C (second compound 0.1 µM, first compound 0.000316 µM): 84%
- viability, T/C (second compound 0.1 µM, first compound 0.001 µM): 54.2%
- viability, T/C (second compound 0.1 µM, first compound 0.00316 µM): 37.3%
- viability, T/C (second compound 0.1 µM, first compound 0.01 µM): 28.9%
- viability, T/C [1]: 20.4%
- viability, T/C (second compound 0.316 µM, first compound 0.0001 µM): 92.6%
- viability, T/C (second compound 0.316 µM, first compound 0.000316 µM): 74.8%
- viability, T/C (second compound 0.316 µM, first compound 0.001 µM): 45.1%
- viability, T/C (second compound 0.316 µM, first compound 0.00316 µM): 34.8%
- viability, T/C (second compound 0.316 µM, first compound 0.01 µM): 28.7%
- viability, T/C [7]: 20.4%
- viability, T/C (second compound 1 µM, first compound 0.0001 µM): 85.1%
- viability, T/C (second compound 1 µM, first compound 0.000316 µM): 64.3%
- viability, T/C (second compound 1 µM, first compound 0.001 µM): 39.5%
- viability, T/C (second compound 1 µM, first compound 0.00316 µM): 27.7%
- viability, T/C (second compound 1 µM, first compound 0.01 µM): 21.8%
- viability, T/C [13]: 18.6%
- viability, T/C (second compound 3.16 µM, first compound 0.0001 µM): 45.4%
- viability, T/C (second compound 3.16 µM, first compound 0.000316 µM): 37.8%
- viability, T/C (second compound 3.16 µM, first compound 0.001 µM): 18.8%
- viability, T/C (second compound 3.16 µM, first compound 0.00316 µM): 18.8%
- viability, T/C (second compound 3.16 µM, first compound 0.01 µM): 5.46%
- viability, T/C [19]: 8.49%

SMILES: Cn1nccc1Nc1nccc(-c2cc3c(s2)C(C)(C)N(CCN2CCOCC2)C3=O)n1 + CC1OCC2(CCN(c3cnc(Sc4ccnc(N)c4Cl)c(N)n3)CC2)C1N
- pIC50 (second compound 0.1 µM): 6.48
- pIC50 (second compound 0.316 µM): 6.62
- pIC50 (second compound 1 µM): 6.65
- pIC50 (second compound 3.16 µM): 6.72
- pIC50 (second compound 10 µM): 6.98
- viability, T/C [1]: 87.4%
- viability, T/C [2]: 68.4%
- viability, T/C [3]: 50.4%
- viability, T/C [4]: 38.2%
- viability, T/C [5]: 32.8%
- viability, T/C [6]: 28.8%
- viability, T/C [7]: 82.8%
- viability, T/C [8]: 65.9%
- viability, T/C [9]: 43.2%
- viability, T/C [10]: 35.7%
- viability, T/C [11]: 30.7%
- viability, T/C [12]: 26.6%
- viability, T/C [13]: 74.9%
- viability, T/C [14]: 61.7%
- viability, T/C [15]: 44.8%
- viability, T/C [16]: 33.3%
- viability, T/C [17]: 27.2%
- viability, T/C [18]: 26%
- viability, T/C [19]: 64.7%
- viability, T/C [20]: 59.9%
- viability, T/C [21]: 42.2%
- viability, T/C [22]: 28.8%
- viability, T/C [23]: 25.8%
- viability, T/C [24]: 24.1%
- viability, T/C [25]: 57%
- viability, T/C [26]: 51.4%
- viability, T/C [27]: 35.9%
- viability, T/C [28]: 26.6%
- viability, T/C [29]: 22.4%
- viability, T/C [30]: 20.6%
